The results in this text go back to ChEMBL document CHEMBL3217414, “Trifluoromethyl derivatives of canonical nucleosides: synthesis and bioactivity studies” (Medchemcomm, 2013).

A word on the IC50: it is the midpoint of a concentration-inhibition curve.

For series [1], the system named is HaCaT. Briefly: Cytotoxicity against human HaCaT cells assessed as inhibition of cell viability after 48 hrs by MTT assay. It counts as cell-based. Particulars: for IC50: Homo sapiens, HaCaT. (In general: Tetrazolium dyes change colour on reduction, which living cells bring about.)
Series [2] deals with L6. Kind of series: Cytotoxicity against rat L6 cells assessed as inhibition of cell viability after 48 hrs by MTT assay. It is filed as cell-based. Particulars: for IC50: Rattus norvegicus, L6, 48 h.
The subject of series [3] is DU-145. Kind of series: Cytotoxicity against human DU145 cells assessed as inhibition of cell viability after 48 hrs by MTT assay. It counts as functional, cell-based. Particulars: for IC50: DU-145, 48 h.
For series [4], the system named is MCF7. Briefly: Cytotoxicity against human MCF7 cells assessed as inhibition of cell viability after 48 hrs by MTT assay. It is filed as functional, cell-based. Particulars: for IC50: MCF7, 48 h.
Series [5] has as its system C6. Kind of series: Cytotoxicity against rat C6 cells assessed as inhibition of cell viability after 48 hrs by MTT assay. It counts as functional, cell-based. Particulars: for IC50: C6, 48 h.
For series [6], the system named is Hepatitis B virus. Briefly: Antiviral activity against Hepatitis B virus. It is filed as functional, organism-based.

Molecules are shown by their SMILES.

Take `Nc1ncnc2c1ncn2[C@H]1C[C@H](O)[C@@H](CO)O1` [DEOXYADENOSINE]: the IC50 in series [1], in series [2], in series [3], in series [4] and in series [5] was over 250 µM throughout.
For the compound `Nc1nc2c(nc(C(F)(F)F)n2[C@H]2C[C@H](O)[C@@H](CO)O2)c(=O)[nH]1`, the IC50 in series [1] was determined as 210 µM; in series [2] it was 234 µM; in series [3] it was 72 µM; in series [4], 76 µM; in series [5], 92 µM. Also, the “inhibition (INH)” value is “Dose-dependent effect” in series [1] (human, hacat) and “Dose-dependent effect” in series [2] (rat, l6, 48 h). The inhibition entry in series [3], in series [4] and in series [5] was “Dose-dependent effect” in each case.
Consider `O=c1[nH]cnc2c1nc(C(F)(F)F)n2[C@@H]1O[C@H](CO)[C@@H](O)[C@H]1O`, for which the IC50 turned out to be 170 µM in series [1]; 195 µM in series [2]; 131 µM in series [3]; 105 µM in series [4]; 142 µM in series [5].
In the same order, the values of `Nc1nc(O)c2ncn([C@H]3C[C@H](O)[C@@H](CO)O3)c2n1` [DEOXYGUANOSINE] are over 250 µM, over 250 µM, over 250 µM, over 250 µM and over 250 µM.
`Nc1ncnc2c1ncn2[C@H]1C=C(C(F)(F)F)[C@@H](CO)O1` registered an IC50 in series [6] of 5 µM.
Still for that read-out and setting: the same measure for `Nc1ccn([C@H]2C=C(C(F)(F)F)[C@@H](CO)O2)c(=O)n1`: 10 µM.
Take `Nc1ccn([C@H]2C[C@H](O)[C@@H](CO)O2)c(=O)n1` [DOXECITINE]: the IC50 in series [1], in series [2], in series [3], in series [4] and in series [5] was over 250 µM each time.
For the compound `O=c1[nH]cnc2c1ncn2[C@@H]1O[C@H](CO)[C@@H](O)[C@H]1O` [INOSINE], the IC50 in series [1], in series [2], in series [3], in series [4] and in series [5] was over 250 µM in each case.
As to `Nc1ncnc2c1nc(C(F)(F)F)n2[C@H]1C[C@H](O)[C@@H](CO)O1`, the IC50 was 214 µM in series [1]; 225 µM in series [2]; 50 µM in series [3]; 65 µM in series [4]; 81 µM in series [5].
In the same order, the values of `Nc1nc(=O)n([C@H]2C[C@H](O)[C@@H](CO)O2)cc1C(F)(F)F` are 140 µM, 155 µM, 25 µM, 32 µM and 44 µM.
